According to patent US10597388B2, “Pyridazinone herbicides” (FMC CORPORATION, priority 2014, dated 2020):

Assays:
Assay type in all cases: in vivo
[1] = system: barnyardgrass (Echinochloa crus-galli); experiment: Test A greenhouse herbicide test, pre- and postemergence
Description: (§1) Seeds of plant species selected from barnyardgrass (Echinochloa crus-galli), kochia (Kochia scoparia), ragweed (common ragweed, Ambrosia elatior), ryegrass, Italian (Italian ryegrass, Lolium multiflorum), crabgrass, large (large crabgrass, Digitaria sanguinalis), foxtail, giant (giant foxtail, Setaria faberii), momingglory (Ipomoea spp.), pigweed (Amaranthus retroflexus), velvetleaf (Abutilon theophrasti), wheat (Triticum aestivum), and corn (Zea mays) were planted into a blend of loam soil and sand and treated preemergence with a directed soil spray using test chemicals formulated in a non-phytotoxic solvent mixture which included a surfactant.
(§2) At the same time, plants selected from these crop and weed species and also blackgrass (Alopecurus myosuroides), and galium (catchweed bedstraw, Galium aparine) were planted in pots containing the same blend of loam soil and sand and treated with postemergence applications of test chemicals formulated in the same manner. Plants ranged in height from 2 to 10 cm and were in the one- to two-leaf stage for the postemergence treatment. Treated plants and untreated controls were maintained in a greenhouse for approximately 10 d, after which time all treated plants were compared to untreated controls and visually evaluated for injury. Plant response ratings, summarized in Table A, are based on a 0 to 100 scale where 0 is no effect and 100 is complete control. A dash (-) response means no test result.

corn (Zea mays) = experiment: as above; conditions: Postemergence; for Corn plant response rating: 0 to 100 scale, 0 is no effect, 100 is complete control
Description: as §1, §2

[2] = system: foxtail, giant (giant foxtail, Setaria faberii); experiment: as above
Description: as §1, §2

kochia (Kochia scoparia) = experiment: as above
Description: as §1, §2

[3] = system: pigweed (Amaranthus retroflexus); experiment: as above
Description: as §1, §2

[4] = system: ragweed (common ragweed, Ambrosia elatior); experiment: as above
Description: as §1, §2

[5] = system: ryegrass, Italian (Italian ryegrass, Lolium multiflorum); experiment: as above
Description: as §1, §2

[6] = system: wheat (Triticum aestivum); experiment: as above; conditions: Postemergence; for Wheat plant response rating: 0 to 100 scale, 0 is no effect, 100 is complete control
Description: as §1, §2

[7] = system: blackgrass (Alopecurus myosuroides); experiment: Test A greenhouse herbicide test, postemergence; conditions: for Plant response rating, Blackgrass: 125 g ai/ha, 0 to 100 scale where 0 is no effect and 100 is complete control; for Blackgrass plant response rating: 500 g ai/ha, 0 to 100 scale, 0 is no effect, 100 is complete control
How it was run: (§3)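 Scores are visual injury ratings from 0 (no effect) to 100 (complete control) versus untreated plants, taken roughly 10 d after treatment in the greenhouse. Treatment was postemergence, on one- to two-leaf plants 2–10 cm high growing in a loam soil/sand mix.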

[8] = system: galium (catchweed bedstraw, Galium aparine); experiment: Test A greenhouse herbicide test, postemergence; conditions: for Galium plant response rating: 0 to 100 scale, 0 is no effect, 100 is complete control
How it was run: as §3

[9] = system: barnyardgrass (Echinochloa crus-galli); experiment: Test B flooded paddy test; conditions: 250 g ai/ha, Flood; visual rating on scale of 0 to 100 where 0 is no effect and 100 is complete control; 13 to 15 d after treatment
How it was run: (§4)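 Ratings use a 0-100 visual scale, where 100 is complete control, and compare treated plants with controls after 13 to 15 d of greenhouse growth. Compound went straight into paddy water kept 3 cm over the soil surface, applied to seedlings at the 2-leaf stage.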

[10] = system: ducksalad (Heteranthera limosa); experiment: Test B flooded paddy test; conditions: 250 g ai/ha, Flood; visual rating on scale of 0 to 100 where 0 is no effect and 100 is complete control; 13 to 15 d after treatment
How it was run: as §4

rice (Oryza sativa) = experiment: Test B flooded paddy test; conditions: 250 g ai/ha, Flood; visual rating on scale of 0 to 100 where 0 is no effect and 100 is complete control; 13 to 15 d after treatment
How it was run: as §4

[11] = system: sedge, umbrella (small-flower umbrella sedge, Cyperus difformis); experiment: Test B flooded paddy test; conditions: 250 g ai/ha, Flood; visual rating on scale of 0 to 100 where 0 is no effect and 100 is complete control; 13 to 15 d after treatment
How it was run: as §4

[12] = Postemergence, 125 g ai/ha, 0 to 100 scale where 0 is no effect and 100 is complete control
[13] = Postemergence, 500 g ai/ha, 0 to 100 scale, 0 is no effect, 100 is complete control
[14] = Preemergence, 125 g ai/ha, 0 to 100 scale where 0 is no effect and 100 is complete control
[15] = Preemergence, 500 g ai/ha, 0 to 100 scale, 0 no effect, 100 complete control
[16] = 125 g ai/ha, 0 to 100 scale where 0 is no effect and 100 is complete control
[17] = Preemergence, 500 g ai/ha, 0 to 100 scale where 0 is no effect and 100 is complete control
[18] = 500 g ai/ha, visual rating after approx. 10 d, 0 to 100 scale (0 no effect, 100 complete control)
[19] = Postemergence, 500 g ai/ha, visual rating after approx. 10 d, 0 to 100 scale (0 no effect, 100 complete control)

Row | SMILES | Plant response rating, Barnyardgrass [1, 12] | Barnyardgrass plant response rating [1, 13] | Barnyardgrass plant response rating [1, 14] | Plant response rating, Corn (corn (Zea mays); [16]) | Plant response rating, Foxtail, Giant [2, 12] | Foxtail, Giant plant response rating [2, 14] | Plant response rating, Kochia (kochia (Kochia scoparia); [12]) | Kochia plant response rating (kochia (Kochia scoparia); [14]) | Plant response rating, Pigweed [3, 12] | Pigweed plant response rating [3, 14] | Plant response rating, Ragweed [4, 12] | Ragweed plant response rating [4, 14] | Plant response rating, Ryegrass, Italian [5, 12] | Ryegrass, Italian plant response rating [5, 14] | Plant response rating, Wheat [6, 16] | Plant response rating, Blackgrass [7] | Blackgrass plant response rating [7] | Plant response rating, Galium [8, 16] | Plant response rating, Barnyardgrass [9] | Plant response rating, Ducksalad [10] | further results
1 | COc1nn(C)c(=O)c(-c2cccc3ccccc23)c1O [Compound 55] | 60 | 90 | 90 | 0 | 70 | 80 | 90 | 70 | 70 | 70 | 90 | 90 | 100 | 100 | 0 | 70 | 80 | 100 | 0 | 0 | Plant response rating, Barnyardgrass [1, 15]: 90; Corn plant response rating (corn (Zea mays); 500 g ai/ha): 20; Foxtail, Giant plant response rating [2, 13]: 90; Plant response rating, Foxtail, Giant [2, 15]: 100; Kochia plant response rating (kochia (Kochia scoparia); [13]): 100; Plant response rating, Kochia (kochia (Kochia scoparia); [15]): 100; Pigweed plant response rating [3, 13]: 90; Plant response rating, Pigweed [3, 15]: 100; Ragweed plant response rating [4, 13]: 100; Plant response rating, Ragweed [4, 15]: 100; Ryegrass, Italian plant response rating [5, 13]: 100; Plant response rating, Ryegrass, Italian [5, 15]: 100; Wheat plant response rating ([6]; 500 g ai/ha): 0; Galium plant response rating ([8]; 500 g ai/ha): 100; Plant response rating, Rice (rice (Oryza sativa)): 0; Plant response rating, Sedge, Umbrella [11]: 0
2 | Cc1sc2ccccc2c1-c1c(OC(=O)OC(C)C)c(Cl)nn(C)c1=O [Compound 94] | 0 | 40 | 0 | 0 | 30 | 20 | 30 | 30 | 30 | 70 | 10 | 50 | 30 | 20 | 0 | 0 | 30 | 80 | 0 | 0 | Plant response rating, Barnyardgrass [1, 17]: 40; Corn plant response rating (corn (Zea mays); 500 g ai/ha): 0; Foxtail, Giant plant response rating [2, 13]: 50; Plant response rating, Foxtail, Giant [2, 17]: 50; Kochia plant response rating (kochia (Kochia scoparia); [13]): 60; Plant response rating, Kochia (kochia (Kochia scoparia); [17]): 70; Pigweed plant response rating [3, 13]: 70; Plant response rating, Pigweed [3, 17]: 90; Ragweed plant response rating [4, 13]: 60; Plant response rating, Ragweed [4, 17]: 80; Ryegrass, Italian plant response rating [5, 13]: 50; Plant response rating, Ryegrass, Italian [5, 17]: 50; Wheat plant response rating ([6]; 500 g ai/ha): 20; Galium plant response rating ([8]; 500 g ai/ha): 90; Plant response rating, Rice (rice (Oryza sativa)): 0; Plant response rating, Sedge, Umbrella [11]: 0
3 | COC(=O)Oc1c(Cl)nn(C)c(=O)c1-c1c(C)sc2ccc(Cl)cc12 [Compound 101] | 0 | 30 | 0 | 0 | 30 | 30 | 20 | 0 | 30 | 90 | 60 | 40 | 30 | 60 | 0 | 20 | 40 | 70 | 0 | 0 | Plant response rating, Barnyardgrass [1, 17]: 30; Plant response rating, Corn (corn (Zea mays); [18]): 20; Plant response rating, Foxtail, Giant [2, 19]: 50; Plant response rating, Foxtail, Giant [2, 17]: 60; Plant response rating, Kochia (kochia (Kochia scoparia); [19]): 30; Plant response rating, Kochia (kochia (Kochia scoparia); [17]): 40; Plant response rating, Pigweed [3, 19]: 70; Plant response rating, Pigweed [3, 17]: 90; Plant response rating, Ragweed [4, 19]: 80; Plant response rating, Ragweed [4, 17]: 40; Plant response rating, Ryegrass, Italian [5, 19]: 50; Plant response rating, Ryegrass, Italian [5, 17]: 100; Plant response rating, Wheat [6, 18]: 20; Plant response rating, Galium [8, 18]: 90; Plant response rating, Rice (rice (Oryza sativa)): 0; Plant response rating, Sedge, Umbrella [11]: 0
